The results in this text go back to patent publication US20260216216A1, “(N-ALKYLDIHYDROL-2H-OXAZINYL)-CANNABIDIOL AS ANTI-PROLIFERATIVE AGENT AND PROCESS FOR PREPARATION THEREOF” (COUNCIL OF SCIENTIFIC AND INDUSTRIAL RESEARCH, priority 2022, published 2026).

Series [1] concerns Mia-PaCa (pancreatic cancer) cell line. Briefly: SRB in-vitro cytotoxicity assay, Mia-PaCa. Conditions: Homo sapiens. On the procedure: (§1) All the ring annulated analogues of cannabinoid were evaluated for their cytotoxicity against number of human cancer cell lines. To evaluate the in-vitro cytotoxicity, a sulphorhodamine B (SRB) assay was carried out. SRB is a negatively charged pink aminoxanthine dye that binds to the basic amino acid of cells in mildly acidic conditions and is removed in basic conditions. […] When cells reached 60-70% confluency, trypsinized and seeded in 96 well plates according to their inoculation density and incubated for 24 hours to attain their proper morphology. Next-day cells were again incubated for 48 hours with test compounds or paclitaxel (positive control). Next, cells were fixed with 50% of ice-cold TCA for 1 hours, washed with distilled water, and kept for air drying. Air-dried plates were then stained with 0.4% SRB dye for 30 minutes and subsequently with water and 1% v/v glacial acetic acid were then kept for air drying. […] The viability of cells is measured based on bound dye after fixation, which is measured by absorbance at 540 nm.

Series [2] has as its system HCT-116 (colorectal cancer) cell line. Briefly: SRB in-vitro cytotoxicity assay, HCT-116. Conditions: Homo sapiens. On the procedure: as §1
Series [3] has as its system MCF-7 (breast cancer) cell line. Nature of the series: SRB in-vitro cytotoxicity assay, MCF-7. Conditions: Homo sapiens. On the procedure: as §1
Series [4] relates to U251 (glioblastoma) cell line. Briefly: SRB in-vitro cytotoxicity assay, U251. Conditions: Homo sapiens. On the procedure:
as §1

Series [5] has as its system A549 (lung cancer) cell line. Nature of the series: SRB in-vitro cytotoxicity assay, A549. Conditions: Homo sapiens. As for the experimental part:
as §1

Another series can be described thus: in vitro. Conditions: human. As for the experimental part: as §1
For series [6], the system named is HEK-293 (normal cell lines). Briefly: SRB in-vitro cytotoxicity assay, HEK-293. Conditions: Homo sapiens, HEK293, read-out: inhibition against HEK-293 cell lines. As for the experimental part: as §1
Series [7] concerns PC-3 (prostate cancer) cell line. Briefly: SRB in-vitro cytotoxicity assay, PC-3. The settings on record: Homo sapiens. As for the experimental part:
as §1

Setting [8] is: MIA PaCa-2, 48 h, read-out: Cytotoxicity (in vitro cell inhibition) Mia-PaCa.
The mark [9] stands for this setting: MIA PaCa-2, read-out: inhibition against Mia-PaCa cell lines.
[10] abbreviates: HCT-116, 48 h, read-out: Cytotoxicity (in vitro cell inhibition) HCT-116.
[11] abbreviates: HCT-116, read-out: inhibition against HCT-116 cell lines.
[12] abbreviates: MCF7, 48 h, read-out: Cytotoxicity (in vitro cell inhibition) MCF-7.
Where [13] appears, read: MCF7, read-out: inhibition against MCF-7 cell lines.
The mark [14] stands for this setting: U-251, 48 h, read-out: Cytotoxicity (in vitro cell inhibition) U251.
The mark [15] stands for this setting: U-251, read-out: inhibition against U251 cell lines.
[16] abbreviates: A549, 48 h, read-out: Cytotoxicity (in vitro cell inhibition) A549.
Setting [17] is: A549, read-out: inhibition against A549 cell lines.
Setting [18] is: 48 h, read-out: Cytotoxicity (in vitro cell inhibition) PC3.
[19] abbreviates: PC-3, read-out: inhibition against PC3 cell lines.

Where two headings read alike, the source gives them in different places.

With `C=C(C)[C@@H]1CCC(C)=C[C@H]1c1c(O)cc(CCCCC)c2c1OCN(CC)C2` [Ib, (N-ethyldihydrol-2H-oxazinyl)-cannabidiol], the inhibition at 20 µM in series [1] (setting [8]) was greater than 70%; in series [1] (setting [9]) it was greater than 70%; in series [2] (setting [10]), 50 to 70%; in series [2] (setting [11]), greater than 50%; in series [3] (setting [12]) it was greater than 70%; in series [3] (setting [13]) it was greater than 70%. In addition, the inhibition at 20 µM is 50 to 70% in series [4] (setting [14]); greater than 50% in series [4] (setting [15]); greater than 70% in series [5] (setting [16]); greater than 70% in series [5] (setting [17]); 50 to 70% in “in vitro”; greater than 50% in series [6]. Besides, the inhibition at 20 µM in series [7] (setting [18]) and in series [7] (setting [19]) was greater than 70% throughout.

On to `C=C(C)[C@@H]1CCC(C)=C[C@H]1c1c(O)cc(CCCCC)c2c1OCN(CCCN1CCOCC1)C2` [If, (N-morpholinopropyldihydrol-2H-oxazinyl)-cannabidiol], for which the inhibition at 20 µM was greater than 70% in series [1] (setting [8]); greater than 70% in series [1] (setting [9]); 50 to 70% in series [2] (setting [10]); greater than 50% in series [2] (setting [11]); greater than 70% in series [3] (setting [12]); greater than 70% in series [3] (setting [13]). For the same compound, the inhibition at 20 µM is greater than 70% in series [4] (setting [14]); greater than 70% in series [4] (setting [15]); greater than 70% in series [5] (setting [16]); greater than 70% in series [5] (setting [17]); greater than 50% in series [6]; greater than 70% in series [7] (setting [18]). Moreover, the inhibition at 20 µM in series [7] (setting [19]) was greater than 70%. The compound further yielded an inhibition at 48 h, 20 µM in the series “in vitro” of 50 to 70%.

For `C=C(C)[C@@H]1CCC(C)=C[C@H]1c1c(O)cc(CCCCC)c2c1OCN(C1CCC1)C2` [Ih, (N-cyclobutyldihydrol-2H-oxazinyl)-cannabidiol], the inhibition at 20 µM was greater than 70% in series [1] (setting [8]); greater than 70% in series [1] (setting [9]); 50 to 70% in series [2] (setting [10]); greater than 50% in series [2] (setting [11]); greater than 70% in series [3] (setting [12]); greater than 70% in series [3] (setting [13]). Further, the inhibition at 20 µM is 50 to 70% in series [4] (setting [14]); greater than 50% in series [4] (setting [15]); 50 to 70% in series [5] (setting [16]); greater than 50% in series [5] (setting [17]); 50 to 70% in the series “in vitro”; greater than 50% in series [6]. Besides, the inhibition at 20 µM in series [7] (setting [18]) and in series [7] (setting [19]) was greater than 70% each time.

As to `CC(=O)O[C@H]1C(=O)[C@@]2(C)[C@H]([C@H](OC(=O)c3ccccc3)[C@]3(O)C[C@H](OC(=O)[C@H](O)[C@@H](NC(=O)c4ccccc4)c4ccccc4)C(C)=C1C3(C)C)[C@]1(OC(C)=O)CO[C@@H]1C[C@@H]2O` [Paclitaxel, paclitaxel, reference compound], the inhibition at 20 µM in series [1] (setting [8]), in series [1] (setting [9]), in series [2] (setting [10]), in series [2] (setting [11]), in series [3] (setting [12]) and in series [3] (setting [13]) was greater than 70% each time. Besides, the inhibition at 20 µM in series [4] (setting [14]), in series [4] (setting [15]), in series [5] (setting [16]), in series [5] (setting [17]), in series [6] and in series [7] (setting [18]) was greater than 70% throughout. Moreover, the inhibition at 20 µM in series [7] (setting [19]) was greater than 70%. Also, the inhibition at 48 h, 20 µM in the series “in vitro” is greater than 70%.

The term inhibition denotes the drop in the measured response relative to a control, in per cent.
